The experiment addresses T1, HIV protease (Human immunodeficiency virus type 1 group M subtype B, UniProt P04585).
T1 construct: made in house; host or cells: Escherichia coli
Nature of the experiment: biochemical. The conditions noted are these: protease expressed in Eschericia coli; peptide substrate 0.5 mg/mL; 50 mM Na acetate, pH 5.5, 30°C, 1 hour. How it is done:
Assay for Inhibition of Microbial Expressed HIV Protease
Inhibition studies of the reaction of the protease expressed in Eschericia coli with a peptide substrate [Val-Ser-Gln-Asn-(betanapthyl)Ala-Pro-Ile-Val, 0.5 mg/mL at the time the reaction is initiated] were in 50 mM Na acetate, pH 5.5, at 30°C for 1 hour. Various concentrations of inhibitor in 1.0 ul DMSO were added to 25 ul of the peptide solution in water. The reaction is initiated by the addition of 15 ul of 0.33 nM protease (0.11 ng) in a solution of 0.133 M Na acetate pH 5.5 and 0.1% bovine serum albumin. The reaction was quenched with 160 ul of 5% phosphoric acid. Products of the reaction were separated by HPLC (VYDAC wide pore 5 cm C-18 reverse phase, acetonitrile gradient, 0.1 % phosphoric acid). The extent of inhibition of the reaction was determined from the peak heights of the products.

pIC50: −log10 of the molar value.

The term pIC50 denotes the negative decadic logarithm of the IC50, by convention in mol/L. A lower pIC50 goes with a high IC50. Turning to `CC(C)(C)NC(=O)[C@@H]1C[C@@H]2CCCC[C@@H]2CN1C[C@@H](O)C[C@@H](Cc1ccccc1)C(=O)N[C@H]1c2ccccc2C[C@H]1O` [A, N-(2(R)-hydroxy-1(S)-indanyl)-2(R)-phenylmethyl-4(S)-hydroxy-5-(2-(3(S)-N'-(t-butylcarbamoyl)-(4aS,8aS)-decahydroisoquinoline)yl)-pentaneamide], the pIC50 is 8.22 to 9.52.

In the case of `CC(C)(C)NC(=O)[C@@H]1CN(C(=O)OCc2ccccc2)CCN1C[C@@H](O)C[C@@H](Cc1ccccc1)C(=O)N[C@H]1c2ccccc2C[C@H]1O` [B, N-(2(R)-hydroxy-1(S)-indanyl)-2(R)-phenylmethyl-4(S)-hydroxy-5-(1-(4-carbobenzyloxy-2(S)-N'-(t-butylcarbamoyl)-piperazinyl))-pentaneamide], the pIC50 was 8.22 to 9.52.

Source of the values: patent publication EP0617968B1, “HIV protease inhibitors in pharmaceutical combinations for the treatment of AIDS” (Merck & Co., Inc., priority 1993, dated 1994).
